From PubChem BioAssay (NCI)
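The compound was tested at five concentrations on cells cultured in 96-well plates, with a 48-hour exposure period. TGI: total growth inhibition.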

What was measured:
Experiment in all cases: NCI anticancer screen, dose series, 48 h
[1] = tested on: 786-0 renal
[2] = tested on: A498 renal
[3] = tested on: ACHN renal
[4] = tested on: BT-549 breast
[5] = tested on: CAKI-1 renal
[6] = tested on: CCRF-CEM leukemia
[7] = tested on: COLO 205 colon
[8] = tested on: DU-145 prostate
[9] = tested on: EKVX NSCLC
[10] = tested on: HCT-116 colon
[11] = tested on: HCT-15 colon
[12] = tested on: HL-60(TB) leukemia
[13] = tested on: HOP-62 NSCLC
[14] = tested on: HS 578T breast
[15] = tested on: HT29 colon
[16] = tested on: IGROV1 ovarian
[17] = tested on: K-562 leukemia
[18] = tested on: KM12 colon
[19] = tested on: LOX IMVI melanoma
[20] = tested on: M14 melanoma
[21] = tested on: MALME-3M melanoma
[22] = tested on: MCF7 breast
[23] = tested on: MDA-MB-231 breast
[24] = tested on: MDA-N
[25] = tested on: MOLT-4 leukemia
[26] = tested on: NCI-H226 lung
[27] = tested on: NCI-H23 lung
[28] = tested on: NCI-H460 lung
[29] = tested on: NCI/ADR-RES ovarian
[30] = tested on: OVCAR-3 ovarian
[31] = tested on: OVCAR-5 ovarian
[32] = tested on: OVCAR-8 ovarian
[33] = tested on: PC-3 prostate
[34] = tested on: RPMI-8226 leukemia
[35] = tested on: RXF 393 renal
[36] = tested on: SF-268 CNS
[37] = tested on: SF-295 CNS
[38] = tested on: SF-539 CNS
[39] = tested on: SK-MEL-2 melanoma
[40] = tested on: SK-MEL-5 melanoma
[41] = tested on: SK-OV-3 ovarian
[42] = tested on: SN12C renal
[43] = tested on: SNB-19 CNS
[44] = tested on: SNB-75 CNS
[45] = tested on: SR leukemia
[46] = tested on: SW-620 colon
[47] = tested on: T-47D breast
[48] = tested on: TK-10 renal
[49] = tested on: U251 CNS
[50] = tested on: UACC-257 melanoma
[51] = tested on: UACC-62 melanoma
[52] = tested on: UO-31 renal

**Q.** With `CN(Cc1cnc2nc(N)nc(N)c2n1)c1ccc(C(=O)NC2CCCCC2)cc1` as the compound, how does the TGI [1] read?
**A.** > 100 µM

**Q.** What about the TGI [2] of the same compound?
**A.** 77.3 µM

**Q.** What about the TGI [3] of the same compound?
**A.** 47.8 µM

**Q.** And the TGI [4]?
**A.** > 100 µM

**Q.** And the TGI [5]?
**A.** > 100 µM

**Q.** What about the TGI [6] of the same compound?
**A.** > 100 µM

**Q.** And the TGI [7]?
**A.** > 100 µM

**Q.** What about the TGI [8] of the same compound?
**A.** > 100 µM

**Q.** What about the TGI [9] of the same compound?
**A.** > 100 µM

**Q.** What about the TGI [10] of the same compound?
**A.** > 100 µM

**Q.** And the TGI [11]?
**A.** > 100 µM

**Q.** What about the TGI [12] of the same compound?
**A.** > 100 µM

**Q.** And the TGI [13]?
**A.** > 100 µM

**Q.** What about the TGI [14] of the same compound?
**A.** 63.4 µM

**Q.** And the TGI [15]?
**A.** 31 µM

**Q.** What about the TGI [16] of the same compound?
**A.** 45.6 µM

**Q.** What about the TGI [17] of the same compound?
**A.** > 100 µM

**Q.** And the TGI [18]?
**A.** 83.2 µM

**Q.** What about the TGI [19] of the same compound?
**A.** > 100 µM

**Q.** And the TGI [20]?
**A.** 29 µM

**Q.** What about the TGI [21] of the same compound?
**A.** > 100 µM

**Q.** What about the TGI [22] of the same compound?
**A.** > 100 µM

**Q.** And the TGI [23]?
**A.** > 100 µM

**Q.** What about the TGI [24] of the same compound?
**A.** > 100 µM

**Q.** And the TGI [25]?
**A.** > 100 µM

**Q.** And the TGI [26]?
**A.** 80.4 µM

**Q.** And the TGI [27]?
**A.** > 100 µM

**Q.** And the TGI [28]?
**A.** 63.5 µM

**Q.** And the TGI [29]?
**A.** > 100 µM

**Q.** And the TGI [30]?
**A.** > 100 µM

**Q.** And the TGI [31]?
**A.** > 100 µM

**Q.** What about the TGI [32] of the same compound?
**A.** > 100 µM

**Q.** What about the TGI [33] of the same compound?
**A.** 46 µM

**Q.** And the TGI [34]?
**A.** > 100 µM

**Q.** And the TGI [35]?
**A.** > 100 µM

**Q.** What about the TGI [36] of the same compound?
**A.** > 100 µM

**Q.** And the TGI [37]?
**A.** > 100 µM

**Q.** What about the TGI [38] of the same compound?
**A.** 29.7 µM

**Q.** And the TGI [39]?
**A.** > 100 µM

**Q.** What about the TGI [40] of the same compound?
**A.** 38.1 µM

**Q.** And the TGI [41]?
**A.** > 100 µM

**Q.** And the TGI [42]?
**A.** > 100 µM

**Q.** What about the TGI [43] of the same compound?
**A.** 38.7 µM

**Q.** And the TGI [44]?
**A.** 65.4 µM

**Q.** What about the TGI [45] of the same compound?
**A.** > 100 µM

**Q.** What about the TGI [46] of the same compound?
**A.** > 100 µM

**Q.** And the TGI [47]?
**A.** > 100 µM

**Q.** What about the TGI [48] of the same compound?
**A.** > 100 µM

**Q.** What about the TGI [49] of the same compound?
**A.** 32.5 µM

**Q.** And the TGI [50]?
**A.** > 100 µM

**Q.** What about the TGI [51] of the same compound?
**A.** 32 µM

**Q.** And the TGI [52]?
**A.** > 100 µM
